Reference: patent publication US10604512B2, “3-(1H-indol-2-yl)-1H-indazoles and therapeutic uses thereof” (Samumed, LLC, priority 2015, dated 2020)

How the values were obtained:
Type in all cases: cell-based
[1] = test system: Wnt activity (Sp5-Luc reporter, TCF/LEF binding sites) in SW480 colon carcinoma cells; assay: Screening assay for Wnt activity: Sp5-Luc reporter gene assay in stably transduced SW480 colon carcinoma cells; conditions: Homo sapiens, overnight incubation, 10-point curve from 10 μM
Description: The screening assay for Wnt activity is described as follows. Reporter cell lines can be generated by stably transducing cancer cell lines (e.g., colon cancer) or primary cells (e.g., IEC-6 intestinal cells) with a lentiviral construct that includes a Wnt-responsive promoter driving expression of the firefly luciferase gene.
SW480 colon carcinoma cells were transduced with a lentiviral vector expressing luciferase with a human Sp5 promoter consisting of a sequence of eight TCF/LEF binding sites. SW480 cells stably expressing the Sp5-Luc reporter gene and a hygromycin resistance gene were selected by treatment with 150 μg/mL of hygromycin for 7 days. These stably transduced SW480 cells were expanded in cell culture and used for all further screening activities. Each compound was dissolved in DMSO as a 10 mM stock and used to prepare compound source plates. Serial dilution (1:3, 10-point dose-response curves starting from 10 μM) and compound transfer was performed using the ECHO 550 (Labcyte, Sunnyvale, Calif.) into 384-well white solid bottom assay plates (Greiner Bio-One) with appropriate DMSO backfill for a final DMSO concentration of 0.1%. For Sp5-Luc reporter gene assays, the cells were plated at 4,000 cells/well in 384-well plates with medium containing 1% fetal bovine serum and incubated overnight at 37° C. and 5% CO2. Following incubation, 20 μl of BrightGlo luminescence reagent (Promega) was added to each well of the 384-well assay plates. The plates were placed on an orbital shaker for 2 min and then luminescence was quantified using the Envision (Perkin Elmer) plate reader. Readings were normalized to DMSO only treated cells, and normalized activities were utilized for EC50 calculations using the dose-response log (inhibitor) vs. response variable slope (four parameters) nonlinear regression feature available in GraphPad Prism 5.0 (or Dotmatics). For EC50 of >10 μM, the percent inhibition at 10 μM is provided.

SW480 colon cancer cells = assay: Cell viability assay (CellTiter-Blue) in SW480 colon cancer cells; conditions: Homo sapiens, 96 h, four days, CellTiter-Blue
Procedure: Representative compounds were screened using the following assay procedure to assess the effect on cell viability as described below.
Each compound was dissolved in DMSO as a 10 mM stock and used to prepare compound source plates. Serial dilution (1:3, 8-point dose-response curves from 10 μM to 0.0045 μM) and compound transfer was performed using the ECHO 550 (Labcyte, Sunnyvale, Calif.) into 96-well clear bottom, black-walled plates (Corning-Costar).
Approximately 2×10^3 SW480 colon cancer cells were seeded into each well and allowed to incubate in the presence or absence of compound for four days at 37° C./5% CO2. Eight replicates of DMSO-treated cells served as controls and cells treated with compound were performed in duplicate.
After incubation, 20 μL of CellTiter-Blue (Promega) was added to each well allowed to incubate for approximately 3 hours. This reagent was a buffered solution which contains resazurin, metabolically active cells were able to reduce rezarurin (blue) into resorufin (pink) which was highly fluorescent. This measured fluorescence was used as a readout for cell viability.
After incubation, the plates were read at Ex 560 nm Em 590 nm (Cytation 3, BioTek). Dose-response curves were generated and EC50 concentration values were calculated using non-linear regression curve fit in the GraphPad Prism (San Diego, Calif.) or Dotmatics' Studies Software (Bishops Stortford, UK). For EC50 of >10 μM, the percent inhibition at 10 μM is provided.

[2] = test system: Primary human fibroblasts derived from IPF patients (LL29 cells) treated with TGF-β1; assay: Inhibition of the fibrotic process: αSMA staining in TGF-β1-treated primary human fibroblasts from IPF patients (LL29 cells); conditions: Fibroblast, 96 h, % αSMA-positive LL29 cells, TGF-β1 20 ng/mL, 4 days
Description: Representative compounds were screened using primary human fibroblasts (derived from IPF patients) treated with TGF-β1 to determine their ability to inhibit the fibrotic process.
Primary human fibroblasts derived from IPF patients (LL29 cells) [^1Xiaoqiu Liu, et. al., “Fibrotic Lung Fibroblasts Show Blunted Inhibition by cAMP Due to Deficient cAMP Response Element-Binding Protein Phosphorylation”, Journal of Pharmacology and Experimental Therapeutics (2005), 315(2), 678-687; ^2Watts, K. L., et. al., “RhoA signaling modulates cyclin D1 expression in human lung fibroblasts; implications for idiopathic pulmonary fibrosis”, Respiratory Research (2006), 7(1), 88] were obtained from American Type Culture Collection (ATCC) and expanded in F12 medium supplemented with 15% Fetal Bovine Serum and Penicillin/Streptomycin.
Each compound was dissolved in DMSO as a 10 mM stock and used to prepare compound source plates. Serial dilution (1:2, 11-point dose-response curves from 10 μM to […]) and compound transfer was performed using the ECHO 550 (Labcyte, Sunnyvale, Calif.) into 384-well clear bottom assay plates (Greiner Bio-One) with appropriate DMSO backfill for a final DMSO concentration of 0.1%. LL29 cells are plated at 1,500 cells/well in 80 μL/well F12 medium supplemented with 1% Fetal Bovine Serum. One hour after addition of the cells, TGF-β1 (Peprotech; 20 ng/mL) was added to the plates to induce fibrosis (ref 1 and 2 above). Wells treated with TGF-β1 and containing DMSO were used as controls. Cells were incubated at 37° C. and 5% CO2 for 4 days. Following incubation for 4 days, SYTOX green nucleic acid stain (Life Technologies [Thermo Fisher Scientific]) was added to the wells at a final concentration of 1 μM and incubated at room temperature for 30 min. Cells were then fixed using 4% formaldehyde (Electron Microscopy Sciences), washed 3 times with PBS followed by blocking and permeabilization using 3% Bovine Serum Albumin (BSA; Sigma) and 0.3% Triton X-100 (Sigma) in PBS. Cells were then stained with antibody specific to α-smooth muscle actin (αSMA; Abcam) (ref 1 and 2 above) in 3% Bovine Serum Albumin (BSA; Sigma) and 0.3% Triton X-100 (Sigma) in PBS, and incubated overnight at 4° C. Cells were then washed 3 times with PBS, followed by incubation with Alexa Flor-647 conjugated secondary antibody (Life Technologies [Thermo Fisher Scientific]) and DAPI at room temperature for 1 hour. Cells were then washed 3 times with PBS and plates were sealed for imaging. αSMA staining was imaged by excitation at 630 nm and emission at 665 nm and quantified using the Compartmental Analysis program on the CellInsight CX5 (Thermo Scientific). Dead or apoptotic cells were excluded from analysis based on positive SYTOX green staining. % of total cells positive for αSMA were counted in each well and normalized to the average of 11 wells treated with TGF-β1 on the same plate using Dotmatics' Studies Software. The normalized averages (fold change over untreated) of 3 replicate wells for each compound concentration were used to create dose-responses curves and EC50 values were calculated using non-linear regression curve fit in the Dotmatics' Studies Software. For EC50 of >10 μM, the percent inhibition at 10 μM is provided.

IL-6 = assay: Inhibition of IL-6 in LPS-stimulated THP-1 human monocyte cells (HTRF); conditions: IL-6 inhibition, LPS-stimulated THP-1 cells, HTRF
Procedure: Human monocyte cell line (THP-1 cells; Catalog # TIB-202, ATCC, Manassas, Va.) were cultured in Roswell Park Memorial Institute (RPMI) 1640 Medium (Catalog #21870-100, Buffalo, N.Y.) with 1% L-glutamine, 1% HEPES, 1% Sodium Pyruvate, 2% Sodium Bicarbonate supplemented with 100 units/mL penicillin, 50 μg/mL streptomycin, 2-mercaptoethanol (0.05 mM) [basal medium] and 10% fetal bovine serum (Catalog #16140089, Life Technologies, Carlsbad, Calif.) at 37° C. and 5% CO2.
THP-1 cells were cultured in basal media with 1% FBS for 24 hours before the start of the assay. Each compound was dissolved in DMSO as a 10 mM stock and used to prepare compound source plates. Serial dilution (1:3, 10-point dose-response curves starting from 10 μM) and compound transfer was performed using the ECHO 550 (Labcyte, Sunnyvale, Calif.) into 384-well white low volume assay plates (Greiner Bio-One) with appropriate DMSO backfill for a final DMSO concentration of 0.1%. THP-1 cells were plated at 5000 cells/well in the 384-well plates and incubated at 37° C. for 2 h. 500 ng/mL of LPS was added after 2 hours and cells were incubated for another 22 hours at 37° C. Plates were spun in a centrifuge for 1 minute at […] and a mixture of anti-IL6 XL665, and anti-IL6 Cryptate diluted in reconstitution buffer (Cisbio Inc.) was added to each well. Following incubation for 3 hrs at room temperature, Homogeneous Time-Resolved Fluorescence (HTRF) was measured using the Envision (Perkin Elmer) at 665 nm and […]. The ratio of fluorescence at 665 nm to 620 nm was used as a readout for IL6 quantification. All samples were processed in duplicate. Readings were normalized to DMSO treated cells and normalized activities were utilized for EC50 calculations using the dose-response log (inhibitor) vs. response variable slope (four parameters) nonlinear regression feature available in GraphPad Prism 5.0 (or Dotmatics). For EC50 of >10 μM, the percent inhibition at 10 μM is provided.

EC50 [1] [µM] | EC50 (SW480 colon cancer cells) [µM] | EC50 (IL-6) [µM] | Compound | EC50 [2] [µM]
0.68 | 1.37 | 1.71 | CN(C)CCOc1cncc(-c2ccc3[nH]nc(-c4cc5c(-c6ccoc6)cccc5[nH]4)c3c2)c1 [Compound 719, 2-((5-(3-(4-(Furan-3-yl)-1H-indol-2-yl)-1H-indazol-5-yl)pyridin-3-yl)oxy)-N,N-dimethylethan-1-amine] | 1.95
0.069 | 0.089 | 0.006 | CN(C)CCNc1cc(F)cc(-c2cccc3[nH]c(-c4n[nH]c5ccc(-c6cnn(C)c6)cc45)cc23)c1 [Compound 808, N^1-(3-Fluoro-5-(2-(5-(1-methyl-1H-pyrazol-4-yl)-1H-indazol-3-yl)-1H-indol-4-yl)phenyl)-N^2,N^2-dimethylethane-1,2-diamine] | 0.088
0.04 | 0.166 | 0.054 | CN(C)CCNc1cc(F)cc(-c2cccc3[nH]c(-c4n[nH]c5ccc(-c6cncc(NC(=O)C7CCCC7)c6)cc45)cc23)c1 [Compound 470, N-(5-(3-(4-(3-((2-(Dimethylamino)ethyl)amino)-5-fluorophenyl)-1H-indol-2-yl)-1H-indazol-5-yl)pyridin-3-yl)cyclopentanecarboxamide] | > 10
0.54 | 1.49 | 5.45 | CS(=O)(=O)NCc1cc(F)cc(-c2cccc3[nH]c(-c4n[nH]c5ccc(-c6cncc(CN7CCCCC7)c6)cc45)cc23)c1 [Compound 491, N-(3-Fluoro-5-(2-(5-(5-(piperidin-1-ylmethyl)pyridin-3-yl)-1H-indazol-3-yl)-1H-indol-4-yl)benzyl)methanesulfonamide] | 0.833

Continued, compound first:

Compound | EC50 [1] [µM] | EC50 (SW480 colon cancer cells) [µM] | EC50 (IL-6) [µM] | EC50 [2] [µM]
CC(C)CC(=O)Nc1cncc(-c2ccc3[nH]nc(-c4cc5c(-c6ccncc6)cccc5[nH]4)c3c2)c1 [Compound 114, 3-Methyl-N-(5-(3-(4-(pyridin-4-yl)-1H-indol-2-yl)-1H-indazol-5-yl)pyridin-3-yl)butanamide] | 0.45 | 1.63 | 0.306 | 0.331
CCCC(=O)Nc1cncc(-c2ccc3[nH]nc(-c4cc5c(N6CCCCC6)cccc5[nH]4)c3c2)c1 [Compound 185, N-(5-(3-(4-(Piperidin-1-yl)-1H-indol-2-yl)-1H-indazol-5-yl)pyridin-3-yl) butyramide] | 0.469 | 1.84 | 7.15 | 0.682
O=C(Nc1cncc(-c2ccc3[nH]nc(-c4cc5c(-c6ccccn6)cccc5[nH]4)c3c2)c1)C1CCCC1 [Compound 162, N-(5-(3-(4-(Pyridin-2-yl)-1H-indol-2-yl)-1H-indazol-5-yl)pyridin-3-yl) cyclopentanecarboxamide] | 0.36 | 1.74 | 0.314 | 0.266
FC1(F)CCN(Cc2cncc(-c3ccc4[nH]nc(-c5cc6c(-c7cccs7)cccc6[nH]5)c4c3)c2)C1 [Compound 362, 5-(5-((3,3-Difluoropyrrolidin-1-yl)methyl)pyridin-3-yl)-3-(4-(thiophen-2-yl)-1H-indol-2-yl)-1H-indazole] | 0.474 | 3.09 | 0.37 | 0.619
CC(C)(C)C(=O)Nc1cncc(-c2ccc3[nH]nc(-c4cc5c(-c6ccncc6)cccc5[nH]4)c3c2)c1 [Compound 120, N-(5-(3-(4-(Pyridin-4-yl)-1H-indol-2-yl)-1H-indazol-5-yl)pyridin-3-yl) pivalamide] | 0.6 | 1.45 | 0.445 | 0.218
CCCC(=O)Nc1cncc(-c2ccc3[nH]nc(-c4cc5c(-c6cc(F)cc(NCCN(C)C)c6)cccc5[nH]4)c3c2)c1 [Compound 465, N-(5-(3-(4-(3-((2-(Dimethylamino)ethyl)amino)-5-fluorophenyl)-1H-indol-2-yl)-1H-indazol-5-yl)pyridin-3-yl)butyramide] | 0.138 | 0.31 | 0.876 | 0.224
